Our source for the MIC and IC50 values is publication PMC4483659, “Amino Acid-Derived Metabolites from the Ascidian Aplidium sp” (Marine Drugs, 2015).

Test [1] concerns Bacillus subtilis (ATCC 6633). The experiment in a line: Antibacterial assay, B. subtilis. It counts as cell-based. On the procedure:
(§1) The cytotoxicity assays were performed in accordance with the literature protocols. The Na^+/K^+-ATPase, isocitrate lyase, and sortase A inhibition assays were performed according to previously described methods. The antimicrobial assays were performed according to the method described previously.

Test [2] relates to Micrococcus luteus (IFO 12708). Nature of the test: Antibacterial assay, M. luteus. It counts as cell-based. As to the method: as §1
Test [3] relates to A549 lung cancer cell-line. Nature of the test: Cytotoxicity, A549 lung cancer cell-line. It counts as cell-based. The conditions noted are these: Homo sapiens. On the procedure:
as §1

The test system of test [4] is Escherichia coli (ATCC 35270). Nature of the test: Antibacterial assay, E. coli. It counts as cell-based. On the procedure: as §1
The next test addresses sortase A (Staphylococcus aureus, UniProt Q2FV99). The experiment in a line: Sortase A inhibition assay. It is filed as biochemical. On the procedure: as §1
In test [5] the test system is Salmonella typhimurium (ATCC 14028). Nature of the test: Antibacterial assay, S. typhimurium. Particulars: Salmonella enterica, read-out: MIC, D: Salmonella typhimurium. It counts as cell-based. On the procedure: as §1
In the next test the test system is K562 leukemia cell-line. Nature of the test: Cytotoxicity, K562 leukemia cell-line. It is filed as cell-based. Particulars: Homo sapiens. As to the method:
as §1

Test [6] deals with MRC5 human lung fibroblast cell-line. The experiment in a line: Cytotoxicity, MRC5 normal cell-line. It is filed as cell-based. On the procedure:
as §1

A further test deals with Na^+/K^+-ATPase. The experiment in a line: Na+/K+-ATPase inhibition assay. Particulars: enzyme inhibition. It is filed as biochemical. As to the method: as §1
Test [7] deals with Staphylococcus aureus (ATCC 6538p). Nature of the test: Antibacterial assay, S. aureus. It counts as cell-based. Particulars: ATCC6538P, read-out: MIC, A: Staphylococcus aureus. As to the method: as §1
Test [8] has as its system Proteus vulgaris (ATCC 3851). The experiment in a line: Antibacterial assay, P. vulgaris. It is filed as cell-based. As to the method:
as §1

Setting [9] is: ATCC6633, Gram(+), ATCC 6633, read-out: MIC, B: Bacillus subtilis.
Where [10] appears, read: IFO12708, Gram(+), IFO 12708, read-out: MIC, C: Micrococcus luteus.
The mark [11] stands for this setting: A549 lung cancer cell-line cytotoxicity, read-out: IC50, A549.
[12] abbreviates: ATCC35270, Gram(−), ATCC 35270, read-out: MIC, F: Escherichia coli.
Setting [13] is: K562 leukemia cell-line cytotoxicity, read-out: IC50, K562.
The mark [14] stands for this setting: MRC5 human lung fibroblast (normal) cell-line cytotoxicity, read-out: IC50, MRC5.
Where [15] appears, read: ATCC3851, Gram(−), ATCC 3851, read-out: MIC, E: Proteus vulgaris.

≈ marks a conversion by molar mass, not a printed value. Like-named read-outs stand apart in the source and are kept apart here.

sortase A, sequence (Q2FV99 whole entry): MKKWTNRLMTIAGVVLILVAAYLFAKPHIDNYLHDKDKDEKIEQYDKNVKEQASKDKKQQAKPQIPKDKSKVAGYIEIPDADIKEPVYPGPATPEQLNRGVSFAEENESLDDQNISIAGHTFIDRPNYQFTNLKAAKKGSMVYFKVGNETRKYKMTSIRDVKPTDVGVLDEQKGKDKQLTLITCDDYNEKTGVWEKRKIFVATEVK

What is called MIC is the lowest concentration found to suppress growth. By IC50 is commonly meant the midpoint of a concentration-inhibition curve. For the compound `COc1c(I)cc(/C=C/C(=O)NCCc2ccccc2)cc1I` [Compound 4, apliamide D], the MIC is above 100 µg/mL in [1] (setting [9]); above 100 µg/mL in test [2] (setting [10]); above 100 µg/mL in [4] (setting [12]); above 100 µg/mL in [5] (Gram(−), ATCC 14028); above 100 µg/mL in [7] (Gram(+), ATCC 6538p); above 100 µg/mL in [8] (setting [15]). Besides, the half-inhibitory concentration (IC50) in [3] (setting [11]) was above 100 µM; against sortase A, above 300 µM; with K562 leukemia cell-line (setting [13]) it was 18.2 µM; in test [6] (setting [14]), above 100 µM; on Na^+/K^+-ATPase, 3.2 µM.
With `O=C(O)c1cc[c]([Hg][OH])cc1` [pHMB, para-Hydroxymercuribenzoic acid, reference compound], the IC50 at sortase A (sortase A inhibition, read-out: IC50, Srt A) amounted to 109 µM.
Take `CC1(C)S[C@@H]2[C@H](NC(=O)[C@H](N)c3ccccc3)C(=O)N2[C@H]1C(=O)O` [Ampicillin, reference compound]: the minimal inhibitory concentration (MIC) stood at 0.4 µg/mL (≈ 1.14 µM) in test [1] (setting [9]); 0.4 µg/mL (≈ 1.14 µM) in test [2] (setting [10]); 6.3 µg/mL (≈ 18 µM) in test [4] (setting [12]); 0.4 µg/mL (≈ 1.14 µM) in [5] (Gram(−), ATCC 14028); 0.4 µg/mL (≈ 1.14 µM) in [7] (Gram(+), ATCC 6538p); 0.8 µg/mL (≈ 2.29 µM) in test [8] (setting [15]).
As for `CN(C)[C@@H](Cc1c[nH]c2cc(Br)ccc12)C(=O)NCCc1ccccc1` [Compound 5, apliamide E], the MIC in test [1] (setting [9]) is above 100 µg/mL; in test [2] (setting [10]) it was above 100 µg/mL; in [4] (setting [12]), above 100 µg/mL; in test [5] (Gram(−), ATCC 14028), above 100 µg/mL; in test [7] (Gram(+), ATCC 6538p), above 100 µg/mL; in test [8] (setting [15]), above 100 µg/mL. Besides, the IC50 in test [3] (setting [11]) is 22.8 µM; against sortase A, above 300 µM; in the test with K562 leukemia cell-line (setting [13]) it was 7.8 µM; in test [6] (setting [14]), 37 µM; against Na^+/K^+-ATPase it was above 200 µM.
Take `COc1cccc2c1C(=O)c1c(O)c3c(c(O)c1C2=O)C[C@@](O)(C(=O)CO)C[C@@H]3O[C@H]1C[C@H](N)[C@H](O)[C@H](C)O1` [Doxorubicin, reference compound]: the IC50 in [3] (setting [11]) was found to be 1.4 µM; in the test on K562 leukemia cell-line (setting [13]) it was 1.2 µM; in test [6] (setting [14]), 9.8 µM.
As to `COc1ccc(CCNC(=O)[C@H](Cc2cc(I)c(OC)c(I)c2)N(C)C)cc1I` [Compound 3, apliamide C], the MIC was above 100 µg/mL in [1] (setting [9]); above 100 µg/mL in test [2] (setting [10]); above 100 µg/mL in [4] (setting [12]); above 100 µg/mL in [5] (Gram(−), ATCC 14028); above 100 µg/mL in test [7] (Gram(+), ATCC 6538p); above 100 µg/mL in test [8] (setting [15]). The IC50 in test [3] (setting [11]) is 13.4 µM; against sortase A, above 300 µM; in the test on K562 leukemia cell-line (setting [13]) it was 10.4 µM; in test [6] (setting [14]), above 100 µM; on Na^+/K^+-ATPase it was above 200 µM.
As for `COc1c(I)cc(CCN(C)C)cc1I` [Compound 6, apliamine A], the MIC in [1] (ATCC6633, read-out: MIC, B: Bacillus subtilis) is above 100 µg/mL; in test [2] (IFO12708, read-out: MIC, C: Micrococcus luteus), above 100 µg/mL; in test [4] (ATCC35270, read-out: MIC, F: Escherichia coli), above 100 µg/mL; in test [5] it was above 100 µg/mL; in [7], above 100 µg/mL; in test [8] (ATCC3851, read-out: MIC, E: Proteus vulgaris), above 100 µg/mL. Moreover, the half-inhibitory concentration (IC50) in test [3] (A549, read-out: IC50, A549) was 8.3 µM; against sortase A it was above 300 µM; in the test with K562 leukemia cell-line (K562, read-out: IC50, K562), 19.7 µM; in test [6] (Homo sapiens, MRC5, read-out: IC50, MRC5), above 100 µM; on Na^+/K^+-ATPase, 189 µM.
For the compound `COc1c(I)cc(C[C@@H](C(=O)NCCc2ccccc2)N(C)C)cc1I` [Compound 2, apliamide B], the MIC was above 100 µg/mL in [1] (setting [9]); above 100 µg/mL in test [2] (setting [10]); above 100 µg/mL in test [4] (setting [12]); above 100 µg/mL in test [5] (Gram(−), ATCC 14028); above 100 µg/mL in test [7] (Gram(+), ATCC 6538p); above 100 µg/mL in test [8] (setting [15]). Further, the IC50 in test [3] (setting [11]) is 10.8 µM; against sortase A it was above 300 µM; with K562 leukemia cell-line (setting [13]) it was 21.1 µM; in [6] (setting [14]), 73.7 µM; at Na^+/K^+-ATPase, above 200 µM.
As for `CN[C@@H](Cc1cc(I)c(OC)c(I)c1)C(=O)NCCc1ccccc1` [Compound 1, apliamide A], the MIC was above 100 µg/mL in test [1] (setting [9]); above 100 µg/mL in test [2] (setting [10]); above 100 µg/mL in [4] (setting [12]); above 100 µg/mL in test [5] (Gram(−), ATCC 14028); above 100 µg/mL in test [7] (Gram(+), ATCC 6538p); above 100 µg/mL in test [8] (setting [15]). The IC50 was above 100 µM in test [3] (setting [11]); above 300 µM on sortase A; 14.3 µM in the test on K562 leukemia cell-line (setting [13]); 59.2 µM in test [6] (setting [14]); 163 µM at Na^+/K^+-ATPase.
